The results in this text go back to ChEMBL document CHEMBL5500344, “Design, synthesis and biological evaluation of matrine contains benzimidazole derivatives as dual TOPOI and PARP inhibitors for cancer therapy” (Eur J Med Chem, 2024).

A short description of series [1]: Acute toxicity in BALB/c mouse xenografted with human HGC-27 cells assessed as change in body weight at 40 mg/kg,ip administrated every other day for 17 days. Format: organism-based. As to conditions: in vivo, 408 h, time 17 day.
Series [2] relates to HGC-27. The series is described as follows: Antiproliferative activity against human HGC-27 cells assessed as inhibition of cell growth incubated for 48 hrs by MTT assay. The format is functional, cell-based. Particulars: HGC-27, 48 h, read-out: IC50.
A further series has as its system HepG2. Nature of the series: Antiproliferative activity against human HepG2 cells assessed as inhibition of cell growth incubated for 48 hrs by MTT assay. Format: functional, cell-based. Particulars: HepG2, 48 h.
Series [3] in a line: Acute toxicity in BALB/c mouse xenografted with human HGC-27 cells assessed as venous congestion in spleen at 40 mg/kg,ip administrated every other day for 17 days by hematoxylin and eosin staining method. The format is organism-based. Particulars: in vivo, 408 h, time 17 day.
The next series has as its system HeLa. The series is described as follows: Antiproliferative activity against human HeLa cells assessed as inhibition of cell growth incubated for 48 hrs by MTT assay. The format is functional, cell-based.
A short description of series [4]: Acute toxicity in BALB/c mouse xenografted with human HGC-27 cells assessed as venous congestion in liver at 40 mg/kg,ip administrated every other day for 17 days by hematoxylin and eosin staining method. Particulars: in vivo, 408 h, time 17 day. Format: organism-based.
The test system of the next series is A549. Nature of the series: Antiproliferative activity against human A549 cells assessed as inhibition of cell growth incubated for 48 hrs by MTT assay. Particulars: A549, 48 h. The format is functional, cell-based.
For series [5], the system named is HGC-27. Nature of the series: Antitumor activity against human HGC-27 cells xenografted in BALB/c mouse assessed as tumor growth inhibition at 40 mg/kg,ip administrated every other day for 17 days relative to control. The format is functional. Particulars: HGC-27, 408 h, time 17 day, read-out: TGI.

`O=C1CCC[C@@H]2[C@H]3CCCN4CCC[C@@H](CN12)[C@@H]34` [MATRINE]: the Activity result in series [1], in series [3] and in series [4] was “Toxic” throughout. Also, the IC50 turned out to be 4.18 mM with HGC-27 [2], 4.36 mM in the series on HepG2, 6.75 mM in the series on HeLa and 5.88 mM with A549. Besides, the inhibition in vivo at 40 mg/kg with HGC-27 [5] is 9.7%.
